Assay results taken from patent US9205091B2, “Diazeniumdiolated compounds, pharmaceutical compositions, and method of treating cancer” (The United States of America, as represented by the …, priority 2009, dated 2015).

Experiments:
H1703 cells = assay: H1703 xenograft in athymic NCr-nu/nu mice, JS-K (Example 3); type: in vivo; details: 6 μmol/kg i.v., three times a week for three weeks
Procedure: (§1) H1944 or H1703 cells are injected at 5×10^6 s.c. into a flank of 7-week-old female athymic NCr-nu/nu mice (Charles River, Wilmington, Mass.). The drug injections are initiated when the tumors reached 2×2×2 mm (typically 3-4 weeks). JS-K is formulated in Pluronic P123 (P123) (BASF, Florham Park, N.J.) micelles. Animals are treated three times a week for three weeks with i.v. tail vein injections of either vehicle (2.25% P123 in PBS) or JS-K (6 μmol/kg in the vehicle). Tumors are measured using a caliper twice a week, and the tumor volumes are calculated using a formula for ellipsoid volume, π/6×L×W×H (Tomayko and Reynolds, 1989). The non-parametric Mann-Whitney test is utilized for statistical comparisons of tumor volumes at each time point. Body weights are taken before each drug injection. Animals are sacrificed 2 h after the last drug injection. Blood is collected by cardiac puncture under isoflurane anesthesia, for testing for cytokines. Cytokines in serum are measured using a mouse Th1/2 multiplex assay (Meso Scale Discovery, Gaithersburg, Md.), according to the manufacturer's protocol. There were 9-13 mice/group at termination.

H1944 cells = assay: H1944 xenograft in athymic NCr-nu/nu mice, JS-K (Example 3); type: in vivo; details: 6 μmol/kg i.v., three times a week for three weeks
Procedure: as §1

CCOC(=O)N1CCN(/[N+]([O-])=N/Oc2ccc([N+](=O)[O-])cc2[N+](=O)[O-])CC1 [Compound 1]
growth of xenografted tumor cells vs vehicle (H1703 cells): significantly reduces growth
growth of xenografted tumor cells vs vehicle (H1944 cells): significantly reduces growth
